Test results from PubChem BioAssay (NCI).
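Abbreviation: GI50, concentration required for 50% inhibition of growth. TGI: concentration producing complete growth inhibition.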

Legend:
Test in all cases: growth of human tumour cells (NCI), 384-well format
A498 renal = system: A498 renal
A549 NSCLC = system: A549 NSCLC
ACHN renal = system: ACHN renal
BT-549 breast = system: BT-549 breast
CAKI-1 renal = system: CAKI-1 renal
COLO 205 colon = system: COLO 205 colon
DU-145 prostate = system: DU-145 prostate
EKVX NSCLC = system: EKVX NSCLC
HCC-2998 colon = system: HCC-2998 colon
HCT-116 colon = system: HCT-116 colon
HCT-15 colon = system: HCT-15 colon
HL-60(TB) leukemia = system: HL-60(TB) leukemia
HOP-62 NSCLC = system: HOP-62 NSCLC
HOP-92 NSCLC = system: HOP-92 NSCLC
HS 578T breast = system: HS 578T breast
HT29 colon = system: HT29 colon
IGROV1 ovarian = system: IGROV1 ovarian
KM12 colon = system: KM12 colon
LOX IMVI melanoma = system: LOX IMVI melanoma
M14 melanoma = system: M14 melanoma
MALME-3M melanoma = system: MALME-3M melanoma
MCF7 breast = system: MCF7 breast
MDA-MB-231 breast = system: MDA-MB-231 breast
MDA-MB-435 melanoma = system: MDA-MB-435 melanoma
MDA-MB-468 breast = system: MDA-MB-468 breast
MOLT-4 leukemia = system: MOLT-4 leukemia
NCI-H226 lung = system: NCI-H226 lung
NCI-H23 lung = system: NCI-H23 lung
NCI-H322M lung = system: NCI-H322M lung
NCI-H460 NSCLC = system: NCI-H460 NSCLC
NCI-H522 lung = system: NCI-H522 lung
NCI/ADR-RES ovarian = system: NCI/ADR-RES ovarian
OVCAR-3 ovarian = system: OVCAR-3 ovarian
OVCAR-4 ovarian = system: OVCAR-4 ovarian
OVCAR-5 ovarian = system: OVCAR-5 ovarian
OVCAR-8 ovarian = system: OVCAR-8 ovarian
PC-3 prostate = system: PC-3 prostate
RPMI-8226 leukemia = system: RPMI-8226 leukemia
RXF 393 renal = system: RXF 393 renal
SF-268 CNS = system: SF-268 CNS
SF-295 CNS = system: SF-295 CNS
SF-539 CNS = system: SF-539 CNS
SK-MEL-28 melanoma = system: SK-MEL-28 melanoma
SK-MEL-5 melanoma = system: SK-MEL-5 melanoma
SK-OV-3 ovarian = system: SK-OV-3 ovarian
SN12C renal = system: SN12C renal
SNB-19 CNS = system: SNB-19 CNS
SNB-75 CNS = system: SNB-75 CNS
SR leukemia = system: SR leukemia
T-47D breast = system: T-47D breast
TK-10 renal = system: TK-10 renal
U251 glioblastoma = system: U251 glioblastoma
UACC-257 melanoma = system: UACC-257 melanoma
UACC-62 melanoma = system: UACC-62 melanoma

Cn1ncc(Cl)c1-c1cc(C(=O)N[C@H](CN)Cc2cccc(F)c2)sc1Cl
GI50 (A498 renal): 0.126 µM | TGI (A498 renal): 1.24 µM | GI50 (A549 NSCLC): 4.01 µM | TGI (A549 NSCLC): 16.4 µM | GI50 (ACHN renal): 3.46 µM | TGI (ACHN renal): 15.5 µM | GI50 (BT-549 breast): 0.819 µM | TGI (BT-549 breast): 2.45 µM | GI50 (CAKI-1 renal): 2.76 µM | TGI (CAKI-1 renal): 14 µM | GI50 (COLO 205 colon): 1.12 µM | TGI (COLO 205 colon): 2.36 µM | GI50 (DU-145 prostate): 3.38 µM | TGI (DU-145 prostate): 14.6 µM | GI50 (EKVX NSCLC): 2.94 µM | TGI (EKVX NSCLC): 12.5 µM | GI50 (HCC-2998 colon): 0.558 µM | TGI (HCC-2998 colon): 2.01 µM | GI50 (HCT-116 colon): 2.28 µM | TGI (HCT-116 colon): 7.53 µM | GI50 (HCT-15 colon): 1.76 µM | TGI (HCT-15 colon): 13.1 µM | GI50 (HL-60(TB) leukemia): 1.32 µM | TGI (HL-60(TB) leukemia): 2.7 µM | GI50 (HOP-62 NSCLC): 2.31 µM | TGI (HOP-62 NSCLC): 6.22 µM | GI50 (HOP-92 NSCLC): 2.09 µM | TGI (HOP-92 NSCLC): 8.6 µM | GI50 (HS 578T breast): 1.01 µM | TGI (HS 578T breast): 2.56 µM | GI50 (HT29 colon): 1.15 µM | TGI (HT29 colon): 2.89 µM | GI50 (IGROV1 ovarian): 0.0436 µM | TGI (IGROV1 ovarian): 0.534 µM | GI50 (KM12 colon): 0.532 µM | TGI (KM12 colon): 2.21 µM | GI50 (LOX IMVI melanoma): 1.75 µM | TGI (LOX IMVI melanoma): 3.23 µM | GI50 (M14 melanoma): 1.71 µM | TGI (M14 melanoma): 3.15 µM | GI50 (MALME-3M melanoma): 1.3 µM | TGI (MALME-3M melanoma): 2.59 µM | GI50 (MCF7 breast): 0.46 µM | TGI (MCF7 breast): 2 µM | GI50 (MDA-MB-231 breast): 5.95 µM | TGI (MDA-MB-231 breast): 18.8 µM | GI50 (MDA-MB-435 melanoma): 2.01 µM | TGI (MDA-MB-435 melanoma): 5.43 µM | GI50 (MDA-MB-468 breast): 0.187 µM | TGI (MDA-MB-468 breast): 1.95 µM | GI50 (MOLT-4 leukemia): 0.15 µM | TGI (MOLT-4 leukemia): 1.12 µM | GI50 (NCI-H226 lung): 2.93 µM | TGI (NCI-H226 lung): 9.22 µM | GI50 (NCI-H23 lung): 3.2 µM | TGI (NCI-H23 lung): 11.7 µM | GI50 (NCI-H322M lung): 2.15 µM | TGI (NCI-H322M lung): 10.9 µM | GI50 (NCI-H460 NSCLC): 0.427 µM | TGI (NCI-H460 NSCLC): 2.67 µM | GI50 (NCI-H522 lung): 1.9 µM | TGI (NCI-H522 lung): 5.36 µM | GI50 (NCI/ADR-RES ovarian): 7.07 µM | TGI (NCI/ADR-RES ovarian): 19.9 µM | GI50 (OVCAR-3 ovarian): 2.02 µM | TGI (OVCAR-3 ovarian): 10.5 µM | GI50 (OVCAR-4 ovarian): 6 µM | TGI (OVCAR-4 ovarian): 18.9 µM | GI50 (OVCAR-5 ovarian): 1.62 µM | TGI (OVCAR-5 ovarian): 4.29 µM | GI50 (OVCAR-8 ovarian): 2.11 µM | TGI (OVCAR-8 ovarian): 5.32 µM | GI50 (PC-3 prostate): 0.3 µM | TGI (PC-3 prostate): 2.69 µM | GI50 (RPMI-8226 leukemia): 1.76 µM | TGI (RPMI-8226 leukemia): 3.18 µM | GI50 (RXF 393 renal): 0.68 µM | TGI (RXF 393 renal): 2.56 µM | GI50 (SF-268 CNS): 4.5 µM | TGI (SF-268 CNS): 15.3 µM | GI50 (SF-295 CNS): 1.07 µM | TGI (SF-295 CNS): 2.33 µM | GI50 (SF-539 CNS): 0.337 µM | TGI (SF-539 CNS): 2.14 µM | GI50 (SK-MEL-28 melanoma): 1.33 µM | TGI (SK-MEL-28 melanoma): 2.67 µM | GI50 (SK-MEL-5 melanoma): 1.39 µM | TGI (SK-MEL-5 melanoma): 2.7 µM | GI50 (SK-OV-3 ovarian): 0.737 µM | TGI (SK-OV-3 ovarian): 8.04 µM | GI50 (SN12C renal): 2.67 µM | TGI (SN12C renal): 14.4 µM | GI50 (SNB-19 CNS): 1.74 µM | TGI (SNB-19 CNS): 10.2 µM | GI50 (SNB-75 CNS): 0.449 µM | TGI (SNB-75 CNS): 3.66 µM | GI50 (SR leukemia): 1.35 µM | TGI (SR leukemia): 2.64 µM | GI50 (T-47D breast): 0.274 µM | TGI (T-47D breast): 2.05 µM | GI50 (TK-10 renal): 1.18 µM | TGI (TK-10 renal): 5.47 µM | GI50 (U251 glioblastoma): 1.11 µM | TGI (U251 glioblastoma): 2.43 µM | GI50 (UACC-257 melanoma): 1.46 µM | TGI (UACC-257 melanoma): 2.79 µM | GI50 (UACC-62 melanoma): 1.29 µM | TGI (UACC-62 melanoma): 2.97 µM
